Like-named read-outs stand apart in the source and are kept apart here.
How the values were obtained:
[1] = target: T1, TbTryR (recombinant T. b. brucei trypanothione reductase) (Trypanosoma brucei brucei, UniProt Q389T8); assay: biochemical
[2] = tested on: TbTryR (recombinant T. b. brucei trypanothione reductase)
[3] = target: T2, TcTryR (recombinant T. cruzi trypanothione reductase) (Trypanosoma cruzi, UniProt P28593); assay: 412 nm DTNB-coupled trypanothione reductase assay (IC50, Km); format: biochemical; details: 412 nm assay, T(S)2 at S = Km (10.4 μM), weighted mean of three occasions
T2 construct: made in house
T2 sequence (P28593 whole entry): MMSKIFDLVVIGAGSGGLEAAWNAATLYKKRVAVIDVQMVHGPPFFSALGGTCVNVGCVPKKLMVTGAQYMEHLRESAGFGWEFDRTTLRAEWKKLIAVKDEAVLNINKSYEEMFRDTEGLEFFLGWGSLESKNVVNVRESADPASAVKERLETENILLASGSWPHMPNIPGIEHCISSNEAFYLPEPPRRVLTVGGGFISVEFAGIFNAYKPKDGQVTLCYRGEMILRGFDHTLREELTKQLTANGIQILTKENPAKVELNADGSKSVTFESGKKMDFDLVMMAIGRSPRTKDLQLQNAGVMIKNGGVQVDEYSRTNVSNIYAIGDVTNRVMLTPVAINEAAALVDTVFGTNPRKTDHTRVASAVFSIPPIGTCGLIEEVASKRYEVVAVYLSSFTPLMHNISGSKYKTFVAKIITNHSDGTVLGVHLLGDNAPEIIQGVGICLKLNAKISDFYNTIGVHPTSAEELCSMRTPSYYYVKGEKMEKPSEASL
Procedure: Assay plates were prepared using a Precision2000 liquid handler (Bio-Tek) with a final DMSO concentration of 1% in all wells. Plates contained a 10-point serial dilution (2-fold or 3-fold dilutions) across columns 2–11 with a top concentration of 100 μM or 200 μM. […] Column 1 contained full signal controls (no inhibitor) and column 12 contained background controls (no enzyme). […] Z′ figures were calculated from the full signal and background controls.

[4] = tested on: Bloodstream form T. b. brucei cells (strain 427, 'single marker'); details: cited from earlier work
[5] = tested on: Bloodstream form T. b. brucei cells (strain 427, 'single marker'); assay: Growth inhibition of bloodstream form T. b. brucei (resazurin); format: cell-based; details: Trypanosoma brucei, 72 h, 3 days incubation, weighted mean of three experiments
Procedure: Bloodstream form T. b. brucei cells (strain 427, ‘single marker’) were grown at 37 °C and 5% CO2 in a modified HMI9 [21] (HMI9-T where 0.2 mM 2-mercaptoethanol was replaced with 0.056 mM thioglycerol). Stock cultures were maintained in T75 vented cap culture flasks (Greiner, Kremsmuenster, Austria) and sub-cultured every 48–72 h by dilution into fresh medium. For microtitre plate assays, cells were counted using a Casy cell counter TT (Schärfe systems) and diluted appropriately. Compounds were tested in 96-well test plates (Greiner). The final conditions were 50–0.07 μM test compound (9-point 3-fold serial dilutions), 0.5% DMSO, 10^3 ml^−1 cells in a total volume of 0.2 ml. Plates were incubated for 3 days, resazurin was added to a final concentration of 45 μM and plates incubated for a further 4 h. Fluorescence was measured at 528 nm excitation and 590 nm emission. EC50 values were determined in three separate experiments and the data reported as weighted means.

[6] = tested on: African trypanosomiasis; parameters: method as in PMID 3503414; details: 50 mg kg^-1, i.p.; cited from earlier work
[7] = target: TbTryR (Trypanosoma brucei brucei, UniProt Q389T8); assay: Modified 412 nm DTNB-coupled assay with NADPH regeneration by glucose-6-phosphate dehydrogenase; format: biochemical; details: NADPH-regenerating system, 6 μM T(S)2
Chain of TbTryR (Q389T8 entry or part of it): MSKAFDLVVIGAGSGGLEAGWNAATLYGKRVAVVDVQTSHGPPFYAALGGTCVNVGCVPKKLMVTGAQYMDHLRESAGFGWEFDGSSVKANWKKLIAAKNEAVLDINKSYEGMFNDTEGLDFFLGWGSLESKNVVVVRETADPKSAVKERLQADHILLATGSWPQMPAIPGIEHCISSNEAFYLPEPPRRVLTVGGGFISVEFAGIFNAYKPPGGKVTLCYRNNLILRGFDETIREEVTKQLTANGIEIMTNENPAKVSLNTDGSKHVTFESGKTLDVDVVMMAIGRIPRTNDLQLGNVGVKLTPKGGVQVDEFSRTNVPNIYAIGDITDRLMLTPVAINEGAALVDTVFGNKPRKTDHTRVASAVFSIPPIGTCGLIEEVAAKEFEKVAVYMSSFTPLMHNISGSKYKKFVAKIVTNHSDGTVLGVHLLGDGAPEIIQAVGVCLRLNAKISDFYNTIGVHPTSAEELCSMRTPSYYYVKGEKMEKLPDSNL
Procedure: In order to determine Km with respect to NADPH using the 412 nm DTNB assay, NADPH levels were maintained constant using glucose-6-phosphate and glucose-6-phosphate dehydrogenase from Saccharomyces cerevisiae. […] The final assay mixture contained 40 mM HEPES pH 7.4, 1 mM EDTA, ∼10 mU ml^−1 TryR, 6 μM T(S)2, 50 μM DTNB and 0.2–200 μM NADPH (7-point 3-fold serial dilution). Assays were initiated by addition of the NADPH. Km values with respect to NADPH were determined for TbTryR in three independent experiments and a weighted mean calculated.

[8] = tested on: African trypanosomiasis; parameters: method as in Halliburton and Fairlamb, unpublished; details: 50 mg kg^-1, i.p., acute mouse model; ref Halliburton and Fairlamb, unpublished; cited from earlier work
[9] = target: T1, TbTryR (recombinant T. b. brucei trypanothione reductase); details: 150 μM NADH as electron donor, 412 nm assay
[10] = tested on: L. donovani trypanothione reductase; parameters: method as in PMID 7607216; details: read-out: Km T(S)2 (by NADPH oxidation); cited from earlier work
[11] = ratio of IC50 values at respective S = Km

T1 sequence (Q389T8 entry or part of it): as above

SMILES	IC50 [1]	Ratio Tc/Tb (IC50 TcTryR / IC50 TbTryR) [2, 11]	IC50 [3]	EC50 ([4]; ref Martyn et al. [19])	further results
O=c1c2ccccc2[se]n1-c1ccccc1 [Ebselen]	0.18 ± 0.01 µM	3.3	0.6 ± 0.01 µM	–	EC50 ([4]; ref Richardson et al. [33]): 2.97 µM
CN1CCN(CCCN2c3ccccc3Sc3ccc(C(F)(F)F)cc32)CC1 [Trifluoperazine]	–	–	20.9 ± 0.9 µM	–	EC50 [5]: 2.11 ± 0.5 µM; activity in the chronic mouse model of African trypanosomiasis [6]: inactive
CN(C)CCC(=O)c1cccc([N+](=O)[O-])c1 [DM6a]	3.2 ± 0.16 µM	1.2	3.8 ± 0.2 µM	0.68 ± 0.1 µM	–
CC(C)(C)c1cc(CN(CCO)CCO)cc(C(C)(C)C)c1O [DM7a]	19.2 ± 1.75 µM	1.4	27.8 ± 2.08 µM	3.01 ± 0.3 µM	–
NC(=O)C1=CN([C@@H]2O[C@H](COP(=O)(O)OP(=O)(O)OC[C@H]3O[C@@H](n4cnc5c(N)ncnc54)[C@H](OP(=O)(O)O)[C@@H]3O)[C@@H](O)[C@H]2O)C=CC1 [NADPH]	–	–	–	–	Km [7]: 0.77 ± 0.01 µM
CN(C)CCCN1c2ccccc2CCc2ccc(Cl)cc21 [Clomipramine]	–	–	–	–	extension of survival time [8]: failed to extend survival time by even one day
CSc1ccc2c(c1)N(CCC1CCCCN1C)c1ccccc1S2 (centres unmarked) [Thioridazine]	–	–	–	–	activity in the chronic mouse model of African trypanosomiasis [6]: inactive
NC(=O)C1=CN([C@@H]2O[C@H](COP(=O)(O)OP(=O)(O)OC[C@H]3O[C@@H](n4cnc5c(N)ncnc54)[C@H](O)[C@@H]3O)[C@@H](O)[C@H]2O)C=CC1 [NADH]	–	–	–	–	Activity relative to that obtained with 150 μM NADPH [9]: 5.7%
CCN(CC)CCCC(C)Nc1c2ccc(Cl)cc2nc2ccc(OC)cc12 (centres unmarked) [Quinacrine]	22.1 ± 2.05 µM	–	37.8 ± 1.91 µM	–	Ratio Tc/Tb (IC50 TcTryR / IC50 TbTryR) [2]: 1.7
N[C@@H](CCC(=O)N[C@H]1CSSC[C@H](NC(=O)CC[C@H](N)C(=O)O)C(=O)NCC(=O)NCCCNCCCCNC(=O)CNC1=O)C(=O)O [T(S)2, trypanothione disulphide]	–	–	–	–	Km [10]: 36 µM
CN(C)CCCC1(c2ccc(F)cc2)OCc2cc(C#N)ccc21 (centres unmarked) [Citalopram]	82.3 ± 6.35 µM	1.9	154 ± 5.42 µM	–	EC50 [5]: 6.59 ± 0.54 µM
CN(C)CCC(=O)c1ccc(Cl)c(Cl)c1 [DM8a]	3.17 ± 0.17 µM	–	7.99 ± 0.51 µM	1 ± 0.21 µM	Ratio Tc/Tb (IC50 TcTryR / IC50 TbTryR) [2]: 2.5
CN(C)CCC(=O)c1ccc(S(C)(=O)=O)cc1 [DM5a]	6.8 ± 0.42 µM	2.5	16.9 ± 1.08 µM	0.55 ± 0.04 µM	–

— article PMC2789240, “Comparative structural, kinetic and inhibitor studies of Trypanosoma brucei trypanothione reductase with T. cruzi^” (Molecular and Biochemical Parasitology, 2010)
